Assay results taken from patent publication US9593155B2, “Oxyntomodulin analogs” (priority 2009, dated 2017).
Like-named read-outs stand apart in the source and are kept apart here. *1 amine or outer side, *2 acyl side, *3 side chain or, on linkers, in order; H or OH if unused. Where a SMILES comes first, the peptide text is derived from it. Bridges are numbered along the chain shown (N, C = ends). Where no end group is shown, it is not given here. Side-chain parts run from the residue outwards. [ ]: non-standard residue; d: D form. The star is where a group is joined. X2 = CC(C)CCC[C@@H](C)[C@H]1CC[C@H]2[C@@H]3CC=C4C[C@@H](OC(=O)CCOCCOCCOCCOCCOCCOCCOCCOCCOCCOCCOCCOCCNC(=O)C*)CC[C@]4(C)[C@H]3CC[C@]12C; γGlu = O=C(O)[C@H](CCC(=O)[*:2])N[*:1]; Palmitoyl = CCCCCCCCCCCCCCCC(=O)*; Aib = CC(C)(N)C(=O)O

Key:
hGCGR [1] = biological target: T1, hGCGR (Homo sapiens, UniProt P47871); test: cell-based cAMP assay as described in WO2008101017 (Table 11), hGCGR
T1 sequence (P47871 26-477): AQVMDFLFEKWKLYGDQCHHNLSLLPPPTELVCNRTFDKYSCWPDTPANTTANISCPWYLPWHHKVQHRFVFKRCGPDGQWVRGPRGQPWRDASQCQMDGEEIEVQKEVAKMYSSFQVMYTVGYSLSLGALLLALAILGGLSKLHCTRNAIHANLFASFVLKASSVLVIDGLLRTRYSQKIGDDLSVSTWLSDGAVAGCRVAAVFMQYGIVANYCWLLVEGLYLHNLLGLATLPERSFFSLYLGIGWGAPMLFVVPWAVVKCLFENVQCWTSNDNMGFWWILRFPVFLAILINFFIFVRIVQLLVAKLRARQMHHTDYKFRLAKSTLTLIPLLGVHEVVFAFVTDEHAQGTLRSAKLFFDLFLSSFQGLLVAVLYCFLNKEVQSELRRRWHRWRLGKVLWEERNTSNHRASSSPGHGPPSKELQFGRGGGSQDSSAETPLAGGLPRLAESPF
Excerpt: (§1) This example presents tables showing the in vitro potencies of various peptide analogs at the human GLP-1 receptor (hGLP-1R) and the human glucagon receptor (hGCGR).

hGLP-1R [2] = biological target: T2, hGLP-1R (Homo sapiens, UniProt P43220); test: cell-based cAMP assay as described in WO2008101017 (Table 11), hGLP-1R
T2 sequence (P43220 24-463): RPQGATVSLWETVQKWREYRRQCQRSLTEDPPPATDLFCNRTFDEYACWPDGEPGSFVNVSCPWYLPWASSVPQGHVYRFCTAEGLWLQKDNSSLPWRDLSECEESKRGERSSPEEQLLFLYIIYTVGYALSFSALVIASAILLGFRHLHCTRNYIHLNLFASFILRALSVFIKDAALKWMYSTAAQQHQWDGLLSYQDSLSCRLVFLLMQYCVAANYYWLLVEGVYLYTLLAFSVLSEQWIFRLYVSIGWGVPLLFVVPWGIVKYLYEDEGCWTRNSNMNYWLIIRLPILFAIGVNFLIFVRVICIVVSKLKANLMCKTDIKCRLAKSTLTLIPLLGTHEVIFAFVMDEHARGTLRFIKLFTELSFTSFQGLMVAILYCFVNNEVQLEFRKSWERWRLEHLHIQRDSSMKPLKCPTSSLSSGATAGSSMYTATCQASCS
Excerpt: as §1

hGLP-1R [3] = biological target: T2, hGLP-1R; test: fluorescence cell based cAMP assay, CHO cells stably expressing GLP-1R; parameters: expressed in transfected cells; details: hGLP-1R EC50, Table 10
Description: (§2) We initially screened peptides in fluorescence cell based assays that measure production of cyclic-AMP (cAMP), using CHO cell lines stably expressing either recombinant human GLP-1R or human GCGR. Determination of Mouse and human GLP-1R and GCGR Agonist Activity was essentially as follows. CHO cells stably expressing mouse or human GLP-1R or GCGR were grown in Iscove's Modified Dulbecco's Medium (IMDM), 10% FBS, 1 mM L-glutamine, penicillin-streptomycin (100 μ/mL) and 750 μg G418/mL for three-four days before harvesting using Enzymefree Dissociation Media (EFDM, Specialty Media). […] The plates were held an additional hour at room temperature, then increasing cAMP levels were detected by a decrease in TR-FRET signal as measured in an EnVision counter (PerkinElmer) in comparison to a standard curve of cAMP as per the manufacturer's instructions. Data were analyzed using the linear and nonlinear regression analysis software, GraphPad Prism.
(§3) The in vitro potencies shown in Table 10 or Table 11 were determined from the results of assays that were similar to either the cell-based cAMP assays described herein above (Table 10) or the cell-based cAMP assays described in International Published Application No. WO2008101017, which is incorporated herein in its entirety, in particular the cell-based cAMP assays described therein (Table 11).

[4] = pI of the peptide analogs
hGCGR [5] = biological target: T1, hGCGR; test: fluorescence cell based cAMP assay, CHO cells stably expressing GCGR
Description: as §2, with “The assay was terminated with the addition of the LANCE kit Detection buffer as per the manufacturer's instructions. The” for “The”
as §3

GCGR = biological target: T3, GCGR (Mus musculus, UniProt Q61606); test: in vivo GCGR receptor occupancy competition assay with 125I-glucagon in wild-type mice
T3 construct: from tissue; host or cells: liver of wild-type mice, dosed in vivo
T3 sequence (Q61606 27-485): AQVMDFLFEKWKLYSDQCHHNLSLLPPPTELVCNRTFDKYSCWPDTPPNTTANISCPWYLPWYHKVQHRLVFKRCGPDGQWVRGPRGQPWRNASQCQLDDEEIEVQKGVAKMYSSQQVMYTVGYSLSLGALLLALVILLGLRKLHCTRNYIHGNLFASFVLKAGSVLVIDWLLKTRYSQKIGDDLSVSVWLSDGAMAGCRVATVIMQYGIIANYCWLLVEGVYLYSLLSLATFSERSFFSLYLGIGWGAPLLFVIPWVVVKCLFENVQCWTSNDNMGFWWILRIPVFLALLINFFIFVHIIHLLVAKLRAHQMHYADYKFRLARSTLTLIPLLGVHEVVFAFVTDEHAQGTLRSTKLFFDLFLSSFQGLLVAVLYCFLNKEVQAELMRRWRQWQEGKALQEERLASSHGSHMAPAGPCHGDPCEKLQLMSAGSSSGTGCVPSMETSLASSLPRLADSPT

hGCGR [6] = biological target: T1, hGCGR; test: ex vivo perfused liver glycogenolysis assay (13C NMR), humanized GCGR mice; details: at 300 nM
Description: Humanized GCGR mice (C57B/6N) were anesthetized (Nembutal IP, 50 mg/kg) in the middle of the dark cycle. The portal vein was then cannulated and the liver was excised and perfused with a preoxygenated Krebs-Henseleit bicarbonate buffered solution for 5-10 minutes which initially was not recirculated to wash out any endogenous substrates. […] A ^13C NMR-visible pool of glycogen was then created by the addition of the gluconeogenic substrate [2-^13C] Pyruvate and ammonium chloride (˜7 mM and 1 mM, respectively) to the perfusate, and the amount of ^13C glycogen contained in the liver was monitored in real time via the Cl resonance of the glucosyl units in glycogen.
Mice expressing human GCGR were anesthetized (Nembutal IP, 50 mg/kg) at approximately the middle of the dark cycle. The portal vein was then cannulated and tied off and the liver was excised. The liver was then placed into a 20 mm NMR tube and the initial Krebs solution was exchanged for a Krebs-BSA perfusate, which was recirculated. ^31P NMR spectroscopy was performed initially to examine the ATP and inorganic phosphate (Pi) levels in the liver which can be used to assess hepatic viability. […] Pyruvate+NH4Cl and the amount of glycogen contained in the liver was monitored in real time via the Cl resonance of the glucosyl units in glycogen.

[7] = 14 day chronic infusion food intake and body weight study in DIO mice; assay type: in vivo, mouse; details: for Cumulative food intake change / Cumulative weight change: 14 day chronic infusion
Description: Lean or diet-induced obese 10-12-week-old male C57BL/6 mice were purchased from Taconic Farms (Germantown, N.Y.) and housed in individual Tecniplast cages in a conventional SPF facility.

[8] = hyperglycemic clamp in DIO mice; assay type: in vivo, mouse; details: ~16 μg/kg/min i.v., last 60 minutes
Description: DIO mice (16 wk on high fat diet) were anesthetized with xylazine and ketamine and catheterized through the right internal jugular vein 3 days before the in vivo studies. […] The venous catheter was used for infusion, and blood samples were collected from the tail vein. Each animal was monitored for food intake and weight gain after surgery to ensure complete recovery. […] Briefly, plasma glucose was measured by OneTouch glucometer every 10 minutes during the 2 hour period. Twenty-five percent glucose (D-glucose, Sigma) was infused i.v. and the rate was adjusted periodically to clamp the plasma glucose levels (˜20 mM). […] Glucose infusion rate (GIR) was adjusted to body weight.

[9] = intraperitoneal glucose tolerance test (IPGTT) in lean C57BL/6N mice; assay type: in vivo, mouse
Description: Intraperitoneal glucose tolerance test. Male C57BL/6N mice were distributed by weight into treatment groups (n=6/group). […] 10 min prior the glucose challenge. Blood glucose concentrations were determined at T=−10 min and T=0 min (baseline). Mice were then immediately challenged, intraperitoneally, with D-glucose (2 g/kg). One group of vehicle-treated mice was challenged with 0.9% saline as a
negative control. Blood glucose levels were determined from tail bleeds taken at 20, 40 and 60 min after D-glucose challenge. […] Percent inhibition values for each treatment were generated from the AUC data normalized to the saline-challenged controls. Areas under the curve (AUC) for glucose (AUC glucose) was calculated using the trapezoidal method. […] Statistical analysis was done using unpaired 2-tailed Student's t test. P values<0.05 were reported as significant.

CCCCCCCCCCCCCCCC(=O)N[C@@H](CCC(=O)N[C@@H](CCC(=O)NCCCC[C@H](NC(=O)[C@H](CC(=O)O)NC(=O)[C@H](CO)NC(=O)[C@@H](NC(=O)[C@H](Cc1ccccc1)NC(=O)[C@@H](NC(=O)CNC(=O)[C@H](CCC(N)=O)NC(=O)[C@@H](CO)NC(=O)[C@@H](N)Cc1c[nH]cn1)[C@@H](C)O)[C@@H](C)O)C(=O)N[C@@H](CO)C(=O)N[C@@H](CCCCN)C(=O)N[C@@H](Cc1ccc(O)cc1)C(=O)N[C@@H](CC(C)C)C(=O)N[C@@H](CC(=O)O)C(=O)NC(C)(C)C(=O)N[C@@H](CCCNC(=N)N)C(=O)N[C@@H](CCCNC(=N)N)C(=O)N[C@@H](C)C(=O)N[C@@H](CCC(N)=O)C(=O)N[C@@H](CC(=O)O)C(=O)N[C@@H](Cc1ccccc1)C(=O)N[C@H](C(=O)N[C@@H](CCC(N)=O)C(=O)N[C@@H](Cc1c[nH]c2ccccc12)C(=O)N[C@@H](CC(C)C)C(=O)N[C@@H](CCSC)C(=O)N[C@@H](CC(N)=O)C(=O)N[C@H](C(=O)N[C@H](CCCCN)C(=O)N[C@@H](CCC(N)=O)C(=O)O)[C@@H](C)O)C(C)C)C(=O)O)C(=O)O [MM103]
EC50 (hGCGR [1]): 0.005 nM | EC50 (hGLP-1R [2]): 0.026 nM

CCCCCCCCCCCCCCCC(=O)N[C@@H](CCC(=O)N[C@@H](CCC(=O)NCCCC[C@H](NC(=O)[C@H](CC(=O)O)NC(=O)[C@H](CO)NC(=O)[C@@H](NC(=O)[C@H](Cc1ccccc1)NC(=O)[C@@H](NC(=O)CNC(=O)[C@H](CCC(N)=O)NC(=O)[C@@H](CO)NC(=O)[C@@H](N)Cc1c[nH]cn1)[C@@H](C)O)[C@@H](C)O)C(=O)N[C@@H](CO)C(=O)N[C@@H](CCCCN)C(=O)N[C@@H](Cc1ccc(O)cc1)C(=O)N[C@@H](CC(C)C)C(=O)N[C@@H](CC(=O)O)C(=O)N[C@@H](CCC(=O)O)C(=O)N[C@@H](CCCNC(=N)N)C(=O)N[C@@H](CCCNC(=N)N)C(=O)N[C@@H](C)C(=O)N[C@@H](CCC(N)=O)C(=O)N[C@@H](CC(=O)O)C(=O)N[C@@H](Cc1ccccc1)C(=O)N[C@H](C(=O)N[C@@H](CCC(N)=O)C(=O)N[C@@H](Cc1c[nH]c2ccccc12)C(=O)N[C@@H](CC(C)C)C(=O)N[C@@H](CCSC)C(=O)N[C@@H](CC(N)=O)C(=O)N[C@H](C(=O)N[C@@H](CCCCN)C(=O)N[C@@H](CCC(N)=O)C(=O)O)[C@@H](C)O)C(C)C)C(=O)O)C(=O)O [MM111] (H-H[dS]QGTFTSDK([γGlu-γGlu-Palmitoyl])SKYLDERRAQDFVQWLMNTKQ-OH)
EC50 (hGCGR [1]): 0.005 nM | EC50 (hGLP-1R [2]): 0.007 nM

CSCC[C@H](NC(=O)[C@H](CC(C)C)NC(=O)[C@H](Cc1c[nH]c2ccccc12)NC(=O)[C@H](CCC(N)=O)NC(=O)[C@@H](NC(=O)[C@H](Cc1ccccc1)NC(=O)[C@H](CC(=O)O)NC(=O)[C@@H]1CCCCNC(=O)CC[C@H](NC(=O)[C@H](CC(=O)O)NC(=O)[C@H](CC(C)C)NC(=O)[C@H](Cc2ccc(O)cc2)NC(=O)[C@H](CCCCN)NC(=O)[C@H](CO)NC(=O)[C@H](Cc2ccc(O)cc2)NC(=O)[C@H](CC(=O)O)NC(=O)[C@H](CO)NC(=O)[C@@H](NC(=O)[C@H](Cc2ccccc2)NC(=O)[C@@H](NC(=O)CNC(=O)[C@H](CCC(N)=O)NC(=O)C(C)(C)NC(=O)[C@@H](N)Cc2c[nH]cn2)[C@@H](C)O)[C@@H](C)O)C(=O)N[C@@H](CCCNC(=N)N)C(=O)N[C@@H](CCCNC(=N)N)C(=O)N[C@@H](C)C(=O)N1)C(C)C)C(=O)N[C@@H](CC(N)=O)C(=O)N[C@H](C(=O)N[C@@H](CCCCN)C(=O)N[C@@H](CCC(=O)N[C@@H](CCC(=O)N[C@@H](CSCC(=O)NCCOCCOCCOCCOCCOCCOCCOCCOCCOCCOCCOCCOCCC(=O)O[C@H]1CC[C@@]2(C)C(=CC[C@H]3[C@@H]4CC[C@H]([C@H](C)CCCC(C)C)[C@@]4(C)CC[C@@H]32)C1)C(=O)O)C(=O)O)C(=O)O)[C@@H](C)O [OXM395] (H-H[Aib]QGTFTSDYSKYLDERRAKDFVQWLMNTK[γGlu][γGlu]C(X2)-OH; lactam 16-20; N-terminus assumed)
EC50 (hGLP-1R [3]): 0.7 nM | pI [4]: about 5.4 | pI ([4]; Table 10): 5.4

CCCCCCCCCCCCCCCC(=O)N[C@@H](CCC(=O)N[C@@H](CCC(=O)NCCCC[C@H](NC(=O)[C@H](CC(=O)O)NC(=O)[C@H](CO)NC(=O)[C@@H](NC(=O)[C@H](Cc1ccccc1)NC(=O)[C@@H](NC(=O)CNC(=O)[C@H](CCC(N)=O)NC(=O)[C@@H](CO)NC(=O)[C@@H](N)Cc1c[nH]cn1)[C@@H](C)O)[C@@H](C)O)C(=O)N[C@@H](CO)C(=O)N[C@@H](CCCCN)C(=O)N[C@@H](Cc1ccc(O)cc1)C(=O)N[C@@H](CC(C)C)C(=O)N[C@@H](CC(=O)O)C(=O)NC(C)(C)C(=O)N[C@@H](CCCNC(=N)N)C(=O)N[C@@H](CCCNC(=N)N)C(=O)N[C@@H](C)C(=O)N[C@@H](CCC(N)=O)C(=O)N[C@@H](CC(=O)O)C(=O)N[C@@H](Cc1ccccc1)C(=O)N[C@H](C(=O)N[C@@H](CCC(N)=O)C(=O)N[C@@H](Cc1c[nH]c2ccccc12)C(=O)N[C@@H](CC(C)C)C(=O)N[C@@H](CCSC)C(=O)N[C@@H](CC(N)=O)C(=O)N[C@H](C(=O)N[C@@H](CCCCN)C(=O)N[C@@H](CCC(N)=O)C(=O)O)[C@@H](C)O)C(C)C)C(=O)O)C(=O)O [OXM418]
EC50 (hGLP-1R [2]): 0.026 nM | EC50 (hGCGR [5]; hGCGR + 20% plasma EC50, Table 10, 20% plasma): 0.3 nM | pI ([4]; Table 10): 5.5

HSEGTFTSDYSKYLDSRRAQDFVQWLMNTKRNRNNIA [OXM-Q3E]
GCGR occupancy (GCGR; subcutaneous, dose not given): 0% | glycogenolysis induced (hGCGR [6]): about 58% | ΔBW ([7]; 5 mg/kg): −2.4% | Cumulative food intake change ([7]; 0.5 mg/kg): 215 kcal | Cumulative weight change ([7]; 0.5 mg/kg): -0.21 g | Cumulative food intake change ([7]; 5 mg/kg): 207 kcal | Cumulative weight change ([7]; 5 mg/kg): -0.21 g | GIR0-60 (glucose infusion rate) [8]: 55 ± 4 mg/kg/min | EC50 (hGCGR [5]; GCGR EC50, Table 4): 1630 nM | effectiveness at reducing glucose relative to native peptide ([9]; comparison of the minimal effective dose, IPGTT): about 10 fold | blood glucose excursion in IPGTT ([9]; lean C57BL/6N mice, s.c.): significantly reduced blood glucose excursion in a dose-dependent manner

glucagon [reference compound]
GCGR occupancy (GCGR; 1.5 mpk): 84%
